The values that follow come from patent US10961215B2, “N-aryl and N-heteroaryl piperidine derivatives as liver X receptor beta agonists, compositions, and their use” (Merck Sharp & Dohme Corp., priority 2016, dated 2021).

pEC50: −log10 of the molar value.

For experiment [1], the target named is T1, GST tagged LXRbeta LBD (ligand binding domain) (Homo sapiens, UniProt P55055).
T1 construct: purchased Invitrogen pv4658.pps
T1 sequence (P55055 222-460 limits assumed): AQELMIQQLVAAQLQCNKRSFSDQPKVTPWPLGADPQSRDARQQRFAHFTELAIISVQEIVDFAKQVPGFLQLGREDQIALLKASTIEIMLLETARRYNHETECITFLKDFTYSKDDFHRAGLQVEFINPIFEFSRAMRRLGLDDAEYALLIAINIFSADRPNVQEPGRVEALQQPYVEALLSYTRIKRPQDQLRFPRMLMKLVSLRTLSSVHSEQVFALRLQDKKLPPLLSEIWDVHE
Description: LanthaScreen TR-FRET Liver X Receptor Coactivator Assay, LXR beta-LBD (co-activator recruitment; IP and % Emax relative to T0901317). The class given is biochemical. The note with it: for pEC50: Inflection Point of co-activator recruitment, LXR beta-LBD, TR-FRET; for Emax: efficacy at max dose in relation to reference T0901317, LXR beta-LBD, read-out: LXR beta actiivty at max dose (%). A digest of the protocol:
(§1)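 Agonist-induced recruitment of a fluorescein-tagged coactivator peptide to the LBD is detected via terbium anti-GST TR-FRET.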

Experiment [2] addresses T2, GST tagged LXRalpha LBD (ligand binding domain) (Homo sapiens, UniProt Q13133).
T2 construct: purchased Invitrogen pv4655
T2 sequence (Q13133 209-447 limits assumed): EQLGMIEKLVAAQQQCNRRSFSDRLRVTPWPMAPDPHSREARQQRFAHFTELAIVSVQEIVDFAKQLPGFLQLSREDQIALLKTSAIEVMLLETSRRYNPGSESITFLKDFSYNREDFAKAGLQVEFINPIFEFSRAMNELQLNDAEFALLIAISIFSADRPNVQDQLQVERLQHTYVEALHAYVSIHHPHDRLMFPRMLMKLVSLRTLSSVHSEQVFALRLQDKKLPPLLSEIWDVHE
In words: LanthaScreen TR-FRET Liver X Receptor Coactivator Assay, LXR alpha-LBD (co-activator recruitment; IP and % Emax relative to T0901317). The class given is biochemical. The note with it: for LXR alpha IP (nM): Inflection Point of co-activator recruitment, LXR alpha-LBD, TR-FRET; for Emax: efficacy at max dose in relation to reference T0901317, LXR alpha-LBD, read-out: LXR alpha actiivty at max dose (%). A digest of the protocol: as §1
For orientation: TR-FRET usually uses a lanthanide donor and a delayed reading to cut background.

In the case of `COc1cccc([C@@](O)(C(=O)N(C)[C@H]2C[C@H](C3CCN(c4ccc(C(=O)N(C)C)c(Cl)n4)CC3)C2)C(F)(F)F)c1` [Example 17-3, Trans-2-chloro-N,N-dimethyl-6-(4-(-3-((R)-3,3,3-trifluoro-2-hydroxy-2-(3-methoxyphenyl)-N-methylpropanamido)cyclobutyl)piperidin-1-yl)nicotinamide], in experiment [1], the pEC50 – broadly, the EC50 on a negative log10 scale, so that one unit is a factor of ten – is 7.57 and the Emax was found to be 65%. Besides, in experiment [2], the “LXR alpha IP (nM)” value was “No IP” and the Emax came to 12%.
The like results for `COc1cccc([C@@](O)(C(=O)N(C)[C@H]2C[C@@H](C3CCN(c4ccc(C(=O)N(C)C)c(Cl)n4)CC3)C2)C(F)(F)F)c1` [Example 17-4, cis-2-chloro-N,N-dimethyl-6-(4-(-3-((R)-3,3,3-trifluoro-2-hydroxy-2-(3-methoxyphenyl)-N-methylpropanamido)cyclobutyl)piperidin-1-yl)nicotinamide] were, in that order, 7.28, 39%, “No IP” and 13%.
Take `CN(C)C(=O)c1ccc(N2CCC([C@H]3C[C@@H](N(C)C(=O)[C@](O)(c4cccc(OC5CC5)c4)C(F)(F)F)C3)CC2)nc1Cl` [Example 17-5, Cis-2-chloro-6-(4-(-3-((R)-2-(3-cyclopropoxyphenyl)-3,3,3-trifluoro-2-hydroxy-N-methylpropanamido)cyclobutyl)piperidin-1-yl)-N,N-dimethylnicotinamide]: in experiment [1], the pEC50 is 6.83 and the Emax was found to be 20%. In experiment [2], the “LXR alpha IP (nM)” value was “No IP” and the Emax was 0%.
The like results for `CN(C)C(=O)c1ccc(N2CCC(C[C@H]3C[C@H]3CN(C)C(=O)[C@](O)(c3ccccc3)C(F)(F)F)CC2)nc1Cl` [Example 18-1, 2-chloro-N,N-dimethyl-6-(4-(((1S,2R)-2-(((R)-3,3,3-trifluoro-2-hydroxy-N-methyl-2-phenylpropanamido)methyl)cyclopropyl)methyl)piperidin-1-yl)nicotinamide] were, in that order, 6.88, 56%, “No IP” and 12%.
Regarding `COc1cccc([C@@](O)(C(=O)N(C)C[C@@H]2C[C@@H]2CC2CCN(c3ccc(C(=O)N(C)C)c(Cl)n3)CC2)C(F)(F)F)c1` [Example 18-2, 2-chloro-N,N-dimethyl-6-(4-(((1S,2R)-2-(((R)-3,3,3-trifluoro-2-hydroxy-2-(3-methoxyphenyl)-N-methylpropanamido)methyl)cyclopropyl)methyl)piperidin-1-yl)nicotinamdie], in experiment [1], the pEC50 was 6.91 and the Emax was 44%. Moreover, in experiment [2], the “LXR alpha IP (nM)” value is recorded as “No IP” and the Emax worked out at 0%.
For `COc1cccc([C@](O)(C(=O)N(C)C[C@@H]2C[C@@H]2CC2CCN(c3ccc(C(=O)N(C)C)c(Cl)n3)CC2)C(F)(F)F)c1` [Example 18-3, 2-chloro-N,N-dimethyl-6-(4-(((1S,2R)-2-(((S)-3,3,3-trifluoro-2-hydroxy-2-(3-methoxyphenyl)-N-methylpropanamido)methyl)cyclopropyl)methyl)piperidin-1-yl)nicotinamide], in that order: 6.29, 25%, “No IP” and 0%.
For `CN(C)C(=O)c1ccc(N2CCC(C[C@@H]3C[C@H]3CN(C)C(=O)[C@](O)(c3ccccc3)C(F)(F)F)CC2)nc1Cl` [Example 18-4, 2-chloro-N,N-dimethyl-6-(4-(((1R,2R)-2-(((R)-3,3,3-trifluoro-2-hydroxy-N-methyl-2-phenylpropanamido)methyl)cyclopropyl)methyl)piperidin-1-yl)nicotinamide], in that order: 7.18, 57%, “No IP” and 15%.
